# Data from patent publication US12215351B2, “Methods for inducing hematopoietic stem cell specificity” (THE CHILDREN'S MEDICAL CENTER CORPORATION, priority 2017, dated 2025).
# Experiments:
# [1] = test system: Runx1:GFP positive cells in the CHT; test: Runx1:GFP positive cells in the CHT of live embryos (confocal imaging); format: in vivo, zebrafish; conditions: 5 μM
# Method: Transgenic Runx1:GFP embryos from the same clutch were treated at the time points indicated (n>10 embryos per treatment group) with 5 μM Ro5-3335 diluted in E3. Live embryos were embedded in 0.8% low-melting point agarose containing 0.04 mg/mL Tricaine and imaged on a Nikon Eclipe Ti microscope with 20× Plan-Apo DIC N.A. 0.75. CHT cells were counted blindly in Z-stack image projections processed on Imaris software (Bitplane).
# [2] = test system: Runx1:GFP+ cells derived from the zebrafish embryo culture; test: Zebrafish transplantation of cultured Runx1:GFP+ cells into casper recipients, whole kidney marrow FACS; format: in vivo; conditions: cells cultured 2 days with 50 μM, analyzed approximately 3 months post-transplant
# Method: Runx1:GFP ubi:mCherry embryos were dissociated at 24 hpf and plated with 50 μM Ro5-3335 or DMSO. After two days in culture, double-positive cells were sorted and transplanted into 48 hpf casper recipients as previously described^10. The recipients were grown to adulthood and the whole kidney marrow was dissected at approximately 3 months and analyzed in an LSRII (BD Biosciences). As negative and positive controls, the kidney marrow of two casper adults and one Runx1:GFP ubi:mCherry adult were analyzed.
# [3] = test system: human iPSC-derived hemogenic endothelium cells; test: Human EHT culture of iPSC-derived hemogenic endothelium, FACS for CD34 and CD45; format: cell-based; conditions: day 6 of EHT
# Method: (§1) Human iPSCs were cultured and differentiated into embryoid bodies as previously described^28. At day 8 of embryoid body differentiation, HE cells were magnetically purified for EHT, and treated with DMSO or Ro5-3335. FACS analysis for CD34 and CD45 was performed at day 6 of EHT using an LSRFortessa™ (BD Biosciences). In the case of the RUNX1c-reporter cell line^21, RUNX1c activity was analyzed at day 4 of EHT using an LSR Fortessa (BD Biosciences).
# Runx1:GFP = test: High-throughput image-based chemical screen in Runx1:GFP zebrafish embryo cultures; format: cell-based; conditions: confirmed by a dose response curve
# Method: Stage-matched zebrafish embryos were dissociated at 24 hpf and grown in medium composed of 85% LDF medium, 5% FBS, and 10% embryo extract. LDF medium contains 50% Leibowitz's L-15 (Invitrogen), 20% DMEM (Invitrogen), and 30% DMEM/F-12 (Invitrogen), supplemented with 2% B27 (Gibco), 15 mM HEPES (Gibco), 1% L-glutamine (Gibco), 1% N2 (Gibco), 10 nM sodium selenite (Sigma), 0.018% sodium bicarbonate (Gibco), 0.04% Primocin (Invivogen), and 0.2% Penicillin-Streptomycin (Gibco). All zebrafish experiments and procedures were performed as per protocols approved by the Boston Children's Hospital IACUC.
# To screen each chemical library plate in duplicate, two 384-well plates were coated with 0.1% gelatin. Runx1:GFP^10 embryos at 24 hpf were washed with E3 embryo water and dechorionated with pronase. Embryos were washed with E3 embryo water, resuspended in blastomere media, mechanically homogenized, and filtered through a 40 µm nylon mesh filter. […]
# A 4× image of the nuclear and fluorescent expression from the entire well was then thresholded and percent area was computed using ImageJ/Fiji. […] From that standard curve, residuals were calculated for each treated well and divided by the standard deviation in the control wells to obtain the z-score of each chemical treatment. […]
# RUNX1c+24 reporter = test: RUNX1c-enhancer reporter cell line undergoing EHT; format: cell-based, human; conditions: day 4 of EHT
# Method: as §1
# [4] = test system: iPSC-derived human hemogenic endothelium cells; test: Intrafemoral transplantation of treated human HE cells into NOD/LtSz-scidIL2Rgnull mice; format: in vivo; conditions: HE cells treated with 25 μM, 6 weeks post-transplant
# Method: Intrafemoral transplantations were performed as described previously^28. NOD/LtSz-scidIL2Rgnull mice (Jackson Laboratory) were transplanted with approximately 100,000 HE cells at day 4 that were treated with 25 μM Ro5-3335 or DMSO. Due to the limited cell number that can be obtained during EHT, the transplants were performed over the course of several weeks.
smiles,measurement,setting,value
"O=C1CN=C(c2ccc[nH]2)c2cc(Cl)ccc2N1 [Ro5-3335, 7-Chloro-1,3-dihydro-5-(1H-pyrrol-2-yl)-2H-1,4-benzodiazepin-2-one]",number of Runx1:GFP+ cells in the CHT at 54 hpf,"[1]; treated 24-30 hpf, imaged at 54 hpf",significant increase
same,number of Runx1:GFP+ cells in the CHT at 72 hpf,"[1]; treated 24-30 hpf, same embryos at 72 hpf",A significant difference at 72 hpf was not observed
same,Runx1:GFP positive cells in the CHT,"[1]; treated 24-48 hpf, imaged at 54 hpf",increased
same,Runx1:GFP positive cells in the CHT,"[1]; treated 24-54 hpf, imaged at 54 hpf",increased
same,Runx1:GFP positive cells in the CHT,"[1]; treated 24-72 hpf, imaged at 72 hpf",increased
same,GFP+ chimerism in kidney marrow of adult casper recipients,[2],enhanced
same,CD34+CD45+ cells,[3],significant increase
same,GFP signal in the embryo cultures,Runx1:GFP,increased
same,RUNX1c reporter activity,RUNX1c+24 reporter,dose-dependent effect
same,"B- and T-cells (CD19, CD3)",[4],not detected
same,engraftment in the contralateral leg,[4],no engraftment detected
same,engraftment of myeloid cells (CD33),[4],clear population expressing the myeloid marker CD33
same,chimerism of human CD45+ cells in the bone marrow,[4]; one mouse,0.017%
